According to PubChem BioAssay (NCI):
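96-well plates; 48 h exposure; 5 concentrations. Endpoints by linear interpolation between flanking doses. Not reached: highest tested concentration assigned. GI50 is the concentration that inhibits growth by half. TGI marks complete inhibition of growth.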

Columns and labels:
Test in all cases: growth of human tumour cells (NCI), 48 h
MOLT-4 leukemia = tested on: MOLT-4 leukemia
OVCAR-3 ovarian = tested on: OVCAR-3 ovarian
CCRF-CEM leukemia = tested on: CCRF-CEM leukemia
SF-295 CNS = tested on: SF-295 CNS
U251 CNS = tested on: U251 CNS
SF-539 CNS = tested on: SF-539 CNS
SNB-19 CNS = tested on: SNB-19 CNS
MALME-3M melanoma = tested on: MALME-3M melanoma
UACC-257 melanoma = tested on: UACC-257 melanoma
T-47D breast = tested on: T-47D breast
IGROV1 ovarian = tested on: IGROV1 ovarian
OVCAR-5 ovarian = tested on: OVCAR-5 ovarian
LOX IMVI melanoma = tested on: LOX IMVI melanoma
NCI-H460 lung = tested on: NCI-H460 lung
HOP-92 NSCLC = tested on: HOP-92 NSCLC
SW-620 colon = tested on: SW-620 colon
SK-MEL-5 melanoma = tested on: SK-MEL-5 melanoma
RPMI-8226 leukemia = tested on: RPMI-8226 leukemia
TK-10 renal = tested on: TK-10 renal
HT29 colon = tested on: HT29 colon
UO-31 renal = tested on: UO-31 renal
OVCAR-4 ovarian = tested on: OVCAR-4 ovarian
HCT-15 colon = tested on: HCT-15 colon
PC-3 prostate = tested on: PC-3 prostate
A549 NSCLC = tested on: A549 NSCLC
EKVX NSCLC = tested on: EKVX NSCLC
HCC-2998 colon = tested on: HCC-2998 colon
ACHN renal = tested on: ACHN renal
MCF7 breast = tested on: MCF7 breast
NCI-H226 lung = tested on: NCI-H226 lung
DU-145 prostate = tested on: DU-145 prostate
UACC-62 melanoma = tested on: UACC-62 melanoma
M14 melanoma = tested on: M14 melanoma
COLO 205 colon = tested on: COLO 205 colon
RXF 393 renal = tested on: RXF 393 renal
BT-549 breast = tested on: BT-549 breast
OVCAR-8 ovarian = tested on: OVCAR-8 ovarian
786-0 renal = tested on: 786-0 renal
SK-MEL-2 melanoma = tested on: SK-MEL-2 melanoma
SF-268 CNS = tested on: SF-268 CNS
CAKI-1 renal = tested on: CAKI-1 renal
HCT-116 colon = tested on: HCT-116 colon
KM12 colon = tested on: KM12 colon
NCI-H522 lung = tested on: NCI-H522 lung
HOP-62 NSCLC = tested on: HOP-62 NSCLC
HL-60(TB) leukemia = tested on: HL-60(TB) leukemia
SN12C renal = tested on: SN12C renal
SR leukemia = tested on: SR leukemia
SK-OV-3 ovarian = tested on: SK-OV-3 ovarian
SNB-75 CNS = tested on: SNB-75 CNS
NCI-H23 lung = tested on: NCI-H23 lung
MDA-MB-231 breast = tested on: MDA-MB-231 breast
MDA-MB-435 = tested on: MDA-MB-435
NCI/ADR-RES ovarian = tested on: NCI/ADR-RES ovarian
SK-MEL-28 melanoma = tested on: SK-MEL-28 melanoma
HS 578T breast = tested on: HS 578T breast

CCC(C)CC(CC)NCCN1CCN(C(CC)CC(C)CC)C1=S (stereo not drawn)
GI50 (MOLT-4 leukemia): 2.22 µM
TGI (MOLT-4 leukemia): 5.19 µM
GI50 (OVCAR-3 ovarian): 1.97 µM
TGI (OVCAR-3 ovarian): 4.08 µM
GI50 (CCRF-CEM leukemia): 1.86 µM
TGI (CCRF-CEM leukemia): 4.98 µM
GI50 (SF-295 CNS): 1.86 µM
TGI (SF-295 CNS): 3.68 µM
GI50 (U251 CNS): 1.55 µM
TGI (U251 CNS): 2.88 µM
GI50 (SF-539 CNS): 1.97 µM
TGI (SF-539 CNS): 3.43 µM
GI50 (SNB-19 CNS): 1.73 µM
TGI (SNB-19 CNS): 3.87 µM
GI50 (MALME-3M melanoma): 1.74 µM
TGI (MALME-3M melanoma): 3.19 µM
GI50 (UACC-257 melanoma): 1.65 µM
TGI (UACC-257 melanoma): 3.1 µM
GI50 (T-47D breast): 1.72 µM
TGI (T-47D breast): 3.57 µM
GI50 (IGROV1 ovarian): 2.23 µM
TGI (IGROV1 ovarian): 4.53 µM
GI50 (OVCAR-5 ovarian): 1.72 µM
TGI (OVCAR-5 ovarian): 3.32 µM
GI50 (LOX IMVI melanoma): 1.57 µM
TGI (LOX IMVI melanoma): 2.91 µM
GI50 (NCI-H460 lung): 2.5 µM
TGI (NCI-H460 lung): 4.1 µM
GI50 (HOP-92 NSCLC): 1.05 µM
TGI (HOP-92 NSCLC): 2.96 µM
GI50 (SW-620 colon): 1.89 µM
TGI (SW-620 colon): 3.55 µM
GI50 (SK-MEL-5 melanoma): 1.61 µM
TGI (SK-MEL-5 melanoma): 2.95 µM
GI50 (RPMI-8226 leukemia): 1.85 µM
TGI (RPMI-8226 leukemia): 4.25 µM
GI50 (TK-10 renal): 3.16 µM
TGI (TK-10 renal): 11 µM
GI50 (HT29 colon): 1.67 µM
TGI (HT29 colon): 3.1 µM
GI50 (UO-31 renal): 2.39 µM
TGI (UO-31 renal): 8.68 µM
GI50 (OVCAR-4 ovarian): 1.59 µM
TGI (OVCAR-4 ovarian): 3.91 µM
GI50 (HCT-15 colon): 1.79 µM
TGI (HCT-15 colon): 3.4 µM
GI50 (PC-3 prostate): 2.05 µM
TGI (PC-3 prostate): 6.87 µM
GI50 (A549 NSCLC): 1.76 µM
TGI (A549 NSCLC): 3.37 µM
GI50 (EKVX NSCLC): 1.93 µM
TGI (EKVX NSCLC): 5.13 µM
GI50 (HCC-2998 colon): 1.57 µM
TGI (HCC-2998 colon): 2.9 µM
GI50 (ACHN renal): 1.76 µM
TGI (ACHN renal): 3.14 µM
GI50 (MCF7 breast): 1.63 µM
TGI (MCF7 breast): 2.98 µM
GI50 (NCI-H226 lung): 1.85 µM
TGI (NCI-H226 lung): 4.02 µM
GI50 (DU-145 prostate): 2.17 µM
TGI (DU-145 prostate): 4.71 µM
GI50 (UACC-62 melanoma): 1.65 µM
TGI (UACC-62 melanoma): 3.05 µM
GI50 (M14 melanoma): 1.79 µM
TGI (M14 melanoma): 3.25 µM
GI50 (COLO 205 colon): 1.6 µM
TGI (COLO 205 colon): 2.95 µM
GI50 (RXF 393 renal): 1.5 µM
TGI (RXF 393 renal): 2.82 µM
GI50 (BT-549 breast): 2.39 µM
TGI (BT-549 breast): 4.52 µM
GI50 (OVCAR-8 ovarian): 1.66 µM
TGI (OVCAR-8 ovarian): 3.05 µM
GI50 (786-0 renal): 1.83 µM
TGI (786-0 renal): 3.3 µM
GI50 (SK-MEL-2 melanoma): 1.89 µM
TGI (SK-MEL-2 melanoma): 3.41 µM
GI50 (SF-268 CNS): 1.92 µM
TGI (SF-268 CNS): 4.11 µM
GI50 (CAKI-1 renal): 1.8 µM
TGI (CAKI-1 renal): 3.66 µM
GI50 (HCT-116 colon): 1.79 µM
TGI (HCT-116 colon): 3.27 µM
GI50 (KM12 colon): 1.71 µM
TGI (KM12 colon): 3.22 µM
GI50 (NCI-H522 lung): 1.74 µM
TGI (NCI-H522 lung): 3.24 µM
GI50 (HOP-62 NSCLC): 1.82 µM
TGI (HOP-62 NSCLC): 3.21 µM
GI50 (HL-60(TB) leukemia): 1.93 µM
TGI (HL-60(TB) leukemia): 3.77 µM
GI50 (SN12C renal): 2.55 µM
TGI (SN12C renal): 7.83 µM
GI50 (SR leukemia): 1.87 µM
TGI (SR leukemia): 4.12 µM
GI50 (SK-OV-3 ovarian): 1.86 µM
TGI (SK-OV-3 ovarian): 3.36 µM
GI50 (SNB-75 CNS): 1.49 µM
TGI (SNB-75 CNS): 2.82 µM
GI50 (NCI-H23 lung): 1.74 µM
TGI (NCI-H23 lung): 3.5 µM
GI50 (MDA-MB-231 breast): 1.84 µM
TGI (MDA-MB-231 breast): 3.55 µM
GI50 (MDA-MB-435): 1.77 µM
TGI (MDA-MB-435): 3.39 µM
GI50 (NCI/ADR-RES ovarian): 1.66 µM
TGI (NCI/ADR-RES ovarian): 3.39 µM
GI50 (SK-MEL-28 melanoma): 1.69 µM
TGI (SK-MEL-28 melanoma): 3.06 µM

CCCCC(=O)OC[n+]1ccc2c(C)c3[nH]c4ccc(OC)cc4c3c(C)c2c1
TGI (MOLT-4 leukemia): 1.13 µM
TGI (SF-539 CNS): 1.92 µM
TGI (SNB-19 CNS): 4.35 µM
TGI (MALME-3M melanoma): > 33.3 µM
TGI (UACC-257 melanoma): > 34.4 µM
TGI (T-47D breast): 14.2 µM
TGI (OVCAR-5 ovarian): 5.61 µM
TGI (RPMI-8226 leukemia): 0.983 µM
TGI (TK-10 renal): 15.2 µM
TGI (HS 578T breast): 2.73 µM
TGI (UO-31 renal): 4.08 µM
TGI (EKVX NSCLC): 3.6 µM
TGI (HCC-2998 colon): 1.8 µM
TGI (ACHN renal): 3.84 µM
TGI (DU-145 prostate): 4.82 µM
TGI (SK-MEL-2 melanoma): > 100 µM
TGI (SF-268 CNS): > 100 µM
TGI (CAKI-1 renal): 4.64 µM
TGI (HCT-116 colon): 1.37 µM
TGI (HL-60(TB) leukemia): > 100 µM
TGI (SR leukemia): 1.04 µM
TGI (SK-OV-3 ovarian): 2.93 µM
TGI (SNB-75 CNS): 27.2 µM
